This note sets out measurements from patent US20240139229A1, “TREATMENT FOR AORTOPATHY” (UNIVERSITY OF KENTUCKY RESEARCH FOUNDATION, priority 2021, published 2024).

For this experiment, the system named is BAPN-induced aortic aneurysm and dissection. Kind of experiment: Disulfiram in BAPN-induced aortopathy mouse model, survival. The conditions noted are these: male C57BL/6J mice, 3 weeks old, BAPN 0.5% wt/vol in drinking water for 28 days, disulfiram 10 mg/mL in sesame oil, daily I.P. 100 μL per 20 g body weight, day -1 to 27, compared to vehicle. The class given is in vivo. As to the method: For the evaluation, an animal model of aortic aneurysm as described above was used to evaluate effects of disulfiram on aortic aneurysm/aortopathy. The model comprised administration of BAPN, i.e., BAPN-induced aortopathy in a mouse model. Specifics of induction of hypercholesteremia and administration of BAPN were substantially as described supra. Male C57BL/6J mice at 3 weeks old were administered beta-aminopropionitrile (BAPN, 0.5% wt/vol) in drinking water for 28 days to induce aortic aneurysm and dissection.
The mice were separated randomly into two groups: control and treatment. For the control group, sesame oil was administered daily via intraperitoneal (I.P.) injection at 100 μL per 20 g body weight from day −1 to 27 (day −1 is the day before the first day of BAPN administration). Simultaneously, for treatment group, disulfiram at 10 mg/mL in sesame oil was administered daily via I.P. injection at 100 μL per 20 g body weight. Animal survival was monitored for 28 days during BAPN administration.

With `CCN(CC)C(=S)SSC(=S)N(CC)CC` [disulfiram, tetraethyldisulfanedicarbothioamide], the Animal survival result is given as “statistically significant increases in days of survival”. Further, the Animal survival result (listed as Disulfiram) is “protects against death from aortopathy”.
